Test results taken from ChEMBL document CHEMBL5126640, “Sanggenon C Suppresses Tumorigenesis of Gastric Cancer by Blocking ERK-Drp1-Mediated Mitochondrial Fission” (J Nat Prod, 2022).
The source made the active and inactive calls. The calls are words filed in the database; no cut-off is given here.

Experiments:
AGS [1] = test: Induction of apoptosis in human AGS cells assessed as early apoptotic cells at 6 uM measured after 24 hrs by AnnexinV-FITC/PI staining based flowcytometry method (reference value: 1.2%); format: functional
AGS [2] = test: Inhibition of mitochondrial fission in human AGS cells assessed as reduction in punctiform mitochondria at 0 to 6 uM measured after 24 hrs by mitotracker based confocal microscopy; format: functional; conditions: dose 0-6 µM
HGC-27 [3] = test: Induction of apoptosis in human HGC-27 cells assessed as early apoptotic cells at 6 uM measured after 24 hrs by AnnexinV-FITC/PI staining based flowcytometry method (reference value: 3.3%); format: functional
AGS [4] = test: Induction of apoptosis in human AGS cells assessed as early apoptotic cells measured after 24 hrs by AnnexinV-FITC/PI staining based flow cytometry method (reference value: 2%); format: functional
AGS [5] = test: Induction of apoptosis in human AGS cells assessed as necrotic cells measured after 24 hrs by AnnexinV-FITC/PI staining based flow cytometry method (reference value: 0.1%); format: functional
HGC-27 [6] = test: Inhibition of mitochondrial fission in human HGC-27 cells assessed as reduction in ATP content at 0 to 10 uM measured after 24 hrs by microplate reader assay; format: functional, cell-based; conditions: dose 0-10 µM
[7] = Toxicity in nude mouse xenografted with human AGS cells assessed as effect on lung morphology at 10 to 20 mg/kg, ip administered every other day and monitored every 3 days by Hematoxyin-eosin staining based analysis; format: organism-based; conditions: in vivo, 72 h, dose 10-20 mg/kg, time 3 day
[8] = Toxicity in nude mouse xenografted with human AGS cells assessed as effect on kidney morphology at 10 to 20 mg/kg, ip administered every other day and monitored every 3 days by Hematoxyin-eosin staining based analysis; format: organism-based; conditions: in vivo, 72 h, dose 10-20 mg/kg, time 3 day
AGS [9] = test: Induction of apoptosis in human AGS cells assessed as increase in cleaved caspase-3 level at 0 to 10 uM by Western blot analysis; format: functional, cell-based; conditions: dose 0-10 µM
AGS [10] = test: Induction of apoptosis in human AGS cells assessed as viable cells at 10 uM measured after 24 hrs by AnnexinV-FITC/PI staining based flowcytometry method (reference value: 95.2%); format: functional; conditions: read-out: Activity
AGS [11] = test: Induction of apoptosis in human AGS cells assessed as downregulation of Bcl-2 level at 0 to 10 uM by Western blot analysis; format: functional, cell-based; conditions: dose 0-10 µM
AGS [12] = test: Induction of apoptosis in human AGS cells assessed as late apoptotic cells at 10 uM measured after 24 hrs by AnnexinV-FITC/PI staining based flowcytometry method (reference value: 3.4%); format: functional
HGC-27 [13] = test: Induction of apoptosis in human HGC-27 cells assessed as necrotic cells at 8 uM measured after 24 hrs by AnnexinV-FITC/PI staining based flowcytometry method (reference value: 0.2%); format: functional
HGC-27 [14] = test: Induction of apoptosis in human HGC-27 cells assessed as downregulation of Bcl-2 level at 0 to 10 uM by Western blot analysis; format: functional, cell-based; conditions: dose 0-10 µM
HGC-27 [15] = test: Inhibition of mitochondrial fission in human HGC-27 cells assessed as reduction in mitochondrial elongated fragments at 0 to 6 uM measured after 24 hrs by mitotracker based confocal microscopy; format: functional, cell-based; conditions: dose 0-6 µM
HGC-27 [16] = test: Induction of apoptosis in human HGC-27 cells assessed as necrotic cells measured after 24 hrs by AnnexinV-FITC/PI staining based flow cytometry method (reference value: 0.1 %); format: functional
HGC-27 [17] = test: Induction of apoptosis in human HGC-27 cells assessed as viable cells at 10 uM measured after 24 hrs by AnnexinV-FITC/PI staining based flowcytometry method (reference value: 91.1%); format: functional; conditions: read-out: Activity
AGS [18] = test: Induction of apoptosis in human AGS cells assessed as late apoptotic cells at 6 uM measured after 24 hrs by AnnexinV-FITC/PI staining based flowcytometry method (reference value: 3.4%); format: functional
HGC-27 [19] = test: Inhibition of ERK signalling pathway in human […] cells assessed as downregulation of p-ERK levels at 0 to 10 uM and measured after 24 hrs by western blot analysis; format: cell-based; conditions: dose 0-10 µM
HGC-27 [20] = test: Induction of apoptosis in human HGC-27 cells transfected with pcDNA3.1-Drp1 plasmid to overexpress DRP1 assessed as viable cells measured after 24 hrs by AnnexinV-FITC/PI staining based flow cytometry method (reference value: 95.8%); format: functional
HGC-27 [21] = test: Induction of apoptosis in human HGC-27 cells assessed as late apoptotic cells at 10 uM measured after 24 hrs by AnnexinV-FITC/PI staining based flowcytometry method (reference value: 5.4%); format: functional
[22] = Toxicity in nude mouse xenografted with human AGS cells assessed as effect on aspartate aminotransferase level at 10 to 20 mg/kg, ip administered every other day and monitored every 3 days; format: organism-based; conditions: in vivo, 72 h, dose 10-20 mg/kg, time 3 day
AGS [23] = test: Induction of apoptosis in human AGS cells transfected with pcDNA3.1-Drp1 plasmid to overexpress DRP1 assessed as late apoptotic cells and measured after 24 hrs by AnnexinV-FITC/PI staining based flow cytometry method (reference value: 2.1 %); format: functional
HGC-27 [24] = test: Induction of apoptosis in human HGC-27 cells assessed as viable cells at 8 uM measured after 24 hrs by AnnexinV-FITC/PI staining based flowcytometry method (reference value: 91.1%); format: functional; conditions: read-out: Activity
AGS [25] = test: Induction of apoptosis in human AGS cells transfected with pcDNA3.1-Drp1 plasmid to overexpress DRP1 assessed as early apoptotic cells and measured after 24 hrs by AnnexinV-FITC/PI staining based flow cytometry method (reference value: 2.1 %); format: functional
HGC-27 [26] = test: Induction of apoptosis in human HGC-27 cells transfected with pcDNA3.1-Drp1 plasmid to overexpress DRP1 assessed as necrotic cells measured after 24 hrs by AnnexinV-FITC/PI staining based flow cytometry method (reference value: 0%); format: functional
AGS [27] = test: Inhibition of mitochondrial fission in human AGS cells assessed as reduction in mitochondrial elongated fragments at 0 to 6 uM measured after 24 hrs by mitotracker based confocal microscopy; format: functional, cell-based; conditions: dose 0-6 µM
Mus musculus = test: In vivo inhibition of ERK signalling pathway in nude mouse xenografted with human AGS cells assessed as downregulation of p-ERK levels at 10 to 20 mg/kg, ip administered every other day and monitored every 3 days by western blot analysis; format: functional, organism-based; conditions: dose 10-20 mg/kg, time 3.0 day
HGC-27 [28] = test: Induction of apoptosis in human HGC-27 cells transfected with pcDNA3.1-Drp1 plasmid to overexpress DRP1 assessed as early apoptotic cells measured after 24 hrs by AnnexinV-FITC/PI staining based flow cytometry method (reference value: 2.1%); format: functional
AGS [29] = test: Induction of cell cycle arrest in human AGS cells assessed as decrease in Cyclin D1 level at 0 to 10 uM by Western blot analysis; format: functional, cell-based; conditions: dose 0-10 µM
AGS [30] = test: Induction of cell cycle arrest in human AGS cells assessed as accumulation of cells at G0/G1 phase at 6 uM incubated for 24 hrs propidium iodide staining-based flow cytometric analysis (reference value: 46.51%); format: functional
AGS [31] = test: Inhibition of mitochondrial fission in human AGS cells assessed as downregulation of p-DRP1 at 0 to 10 uM measured after 24 hrs by Western blot analysis; format: functional, cell-based; conditions: dose 0-10 µM
HGC-27 [32] = test: Induction of apoptosis in human HGC-27 cells transfected with pcDNA3.1-Drp1 plasmid to overexpress DRP1 assessed as late apoptotic cells measured after 24 hrs by AnnexinV-FITC/PI staining based flow cytometry method (reference value: 2.0%); format: functional

**Q.** Which Activity (AGS [1]) does the source give for `CC(C)=CCC12Oc3cc(O)ccc3C1(O)Oc1cc(O)c([C@H]3C=C(C)C[C@H](c4ccc(O)cc4O)[C@H]3C(=O)c3ccc(O)cc3O)c(O)c1C2=O` (stereo partly drawn) here?
**A.** The Activity was 1.7%.

**Q.** What about the inhibition (AGS [2]) of the same molecule?
**A.** The inhibition was “Active”.

**Q.** And the Activity (HGC-27 [3])?
**A.** The Activity was 4.2%.

**Q.** What about the Activity (AGS [4]) of the same molecule?
**A.** The Activity was 3.5%.

**Q.** And the Activity (AGS [5])?
**A.** Its Activity is 0.1%.

**Q.** What about the inhibition (HGC-27 [6]) of the same molecule?
**A.** The inhibition was “Active”.

**Q.** And the Activity [7]?
**A.** The Activity was “Non-Toxic”.

**Q.** And the Activity [8]?
**A.** Its Activity is “Non-Toxic”.

**Q.** What about the Activity (AGS [9]) of the same molecule?
**A.** The Activity was “Active”.

**Q.** And the viability at 10 µM (AGS [10])?
**A.** The viability at 10 µM was 81.2%.

**Q.** And the Activity (AGS [11])?
**A.** Its Activity is “Active”.

**Q.** What about the Activity (AGS [12]) of the same molecule?
**A.** Its Activity is 15.3%.

**Q.** And the Activity (HGC-27 [13])?
**A.** The Activity was 1.8%.

**Q.** And the Activity (HGC-27 [14])?
**A.** Its Activity is “Active”.

**Q.** What about the inhibition (HGC-27 [15]) of the same molecule?
**A.** Its inhibition is “Active”.

**Q.** What about the Activity (HGC-27 [16]) of the same molecule?
**A.** Its Activity is 0.4%.

**Q.** And the viability at 10 µM (HGC-27 [17])?
**A.** The viability at 10 µM was 72.4%.

**Q.** What about the Activity (AGS [18]) of the same molecule?
**A.** Its Activity is 7.9%.

**Q.** And the inhibition (HGC-27 [19])?
**A.** Its inhibition is “Active”.

**Q.** What about the Activity (HGC-27 [20]) of the same molecule?
**A.** The Activity was 95.4%.

**Q.** What about the Activity (HGC-27 [21]) of the same molecule?
**A.** The Activity was 15.9%.

**Q.** And the Activity [22]?
**A.** The Activity was “Non-Toxic”.

**Q.** And the Activity (AGS [23])?
**A.** The Activity was 6.8%.

**Q.** What about the viability at 8 µM (HGC-27 [24]) of the same molecule?
**A.** The viability at 8 µM was 83.1%.

**Q.** And the Activity (AGS [25])?
**A.** Its Activity is 2.8%.

**Q.** And the Activity (HGC-27 [26])?
**A.** Its Activity is 0.4%.

**Q.** And the inhibition (AGS [27])?
**A.** The inhibition was “Active”.

**Q.** What about the inhibition (Mus musculus) of the same molecule?
**A.** The inhibition was “Active”.

**Q.** And the Activity (HGC-27 [28])?
**A.** Its Activity is 2.4%.

**Q.** What about the Activity (AGS [29]) of the same molecule?
**A.** Its Activity is “Active”.

**Q.** What about the Activity (AGS [30]) of the same molecule?
**A.** Its Activity is 54.7%.

**Q.** And the inhibition (AGS [31])?
**A.** Its inhibition is “Active”.

**Q.** What about the Activity (HGC-27 [32]) of the same molecule?
**A.** Its Activity is 1.8%.
